Results reported in PMC8062851, “2-Methoxyestradiol and its derivatives inhibit store-operated Ca^2+ entry in T cells: Identification of a new and potent inhibitor” (Biochimica et Biophysica Acta. Molecular Cell Research, 2021).
Read-outs that look alike come from different tables or passages of the source.

Experiments:
[1] = tested on: SOCE in human Jurkat T cells; assay: cells; format: cell-based
Procedure: (§1) Jurkat T-lymphocytes, primary human CD4^+ T cells and H1299 cells were pelleted at 450 ×g for 5 min, rat TMBP at 300 ×g for 8 min at room temperature and were resuspended in 1 ml of either standard JMP medium (Jurkat, H1299 and human CD4^+ T cells) or standard DMEM based medium containing 10% fetal bovine serum (FBS) (v/v) (TMBP cells). Resting TMBP cells (day 5–7 after re-stimulation) after the second to fifth re-stimulation were thawed from liquid nitrogen 12 to 40 h prior to Fura2-loading. After pre-incubation for 5 min at 37 °C, cells were incubated with 4 μM Fura2-AM for 15 min at 37 °C. After addition of the dye, cells were kept in the dark. Afterwards, cells and the dye were diluted by addition of 4 ml standard medium and incubated for another 15 min. Cells were washed twice in Ca^2+ buffer (140 mM NaCl, 5 mM KCl, 1 mM MgSO4, 1 mM CaCl2, 1 mM NaH2PO4, 20 mM HEPES, 5.5 mM glucose; pH 7.4 (NaOH), sterile filtered) and were diluted to a concentration of 2*10^6 cells/ml. Subsequently, cells were kept at room temperature for 20 min for de-esterification before the start of the first measurement.
(§2) In experiments using a Ca^2+ free/Ca^2+ re-addition protocol, cells were pelleted as described for Fura2 loading and Ca^2+ buffer was exchanged by 1 ml nominal Ca^2+ free buffer (140 mM NaCl, 5 mM KCl, 1 mM MgSO4, 1 mM NaH2PO4, 20 mM HEPES, 5.5 mM glucose; pH 7.4 (NaOH), sterile filtered) immediately before starting the measurement. The measurement was controlled by FL Solutions (Version 4.1, Hitachi High-Technologies Corporation). Fura2 was alternatively excited every 2 s at 340 ± 5 nm and 380 ± 5 nm, each 400 ms apart.
Finally, every measurement was calibrated using 0.1% (v/v) Triton X-100 to obtain a maximal ratio and 4 mM EGTA and 30 mM Tris to obtain a minimal ratio.
R is the ratio between F340 and F380. Rmin and Rmax are the minimal and maximal ratio, respectively, obtained by calibration. F380 min and F380 max are the minimal and maximal fluorescence intensity at 380 nm EX during the calibration. Finally, artefacts due to compound additions that usually could easily be identified and lasted about 8 s were deleted from the tracings using FL Solutions (Version 4.1, Hitachi High-Technologies Corporation). The fluorescence intensities of deleted data points were interpolated from those just before and after the deleted time points.
Estradiol, 2ME2 and 2ME2 derivatives were dissolved in DMSO at a concentration of 50 mM and stored at −20 °C for up to 6 months. For concentration-response curves, stock solution was freshly diluted with DMSO to obtain the same DMSO concentration of 0.2% (v/v) for all conditions.
The compound concentrations were then log transformed. Finally, the data were fitted to a corresponding nonlinear fit of variable slope using Prism 6 (GraphPad Software, USA).

IP3 receptors = assay: IP3-evoked Ca2+ release in permeabilized Jurkat T cells; format: cell-based, human; details: 2 μM IP3
Procedure: (§3) 3 ∗ 10^7 Jurkat T-lymphocytes per measurement were centrifuged at 450 ×g for 5 min at room temperature. The pellet was rinsed twice, each time using 10 ml permeabilization buffer 1 (120 mM KCl, 10 mM NaCl, 1.2 mM MgCl2, 0.533 mM CaCl2, 1 mM EGTA and 10 mM HEPES, pH 7.2 (KOH), sterile filtered). Subsequently, the pellet was resuspended in 2 ml permeabilization buffer 1 containing 80 μg/ml saponin (Fluka) and the cells were incubated for 10 min at 37 °C. Subsequently, the cells were centrifuged at 450 ×g for 5 min at room temperature and the cell pellet was washed once in 10 ml permeabilization buffer 2 (120 mM KCl, 10 mM NaCl, 1.2 mM MgCl2 and 10 mM HEPES, pH 7.2 (KOH), sterile filtered). Finally, the cells were taken up in 1 ml permeabilization buffer 2, placed into a cuvette and measured at the fluorescence spectrophotometer. Before the start of the measurement, 0.5 μl of 1 mM Fura2 free acid (dissolved in pure water, final concentration: 0.5 μM), 5 μl of 5 mg/ml creatinkinase (dissolved in permeabilization buffer 2, final concentration: 25 μg/ml, 20 U/ml, Roche) and 10 μl of 2 M creatin phosphate (dissolved in permeabilization buffer 2, final concentration: 20 mM, Calbiochem) were added. Fura2 was used to measure the Ca^2+ concentration and creatinkinase and creatin phosphate were used as ATP-regenerating system. The measurement was controlled by FL Solutions (Version 4.1, Hitachi High-Technologies Corporation). Fura2 was alternatively excited every 2 s at 340 ± 5 nm and 380 ± 5 nm, each 400 ms apart. Fluorescence intensity was measured at an emission wavelength of 495 ± 5 nm for both excitation wavelengths. […] Ca^2+ concentrations were calculated according to Grynkiewicz et al. as described earlier in Section 2.4.
(§4) As a quantitative read-out for inhibition of IP3 receptors, the peak [Ca^2+] after IP3 addition was subtracted from the mean [Ca^2+] between 25 and 75 s before IP3 addition (dPeak). […] The rate constant K of the fitted data was used as a quantitative read-out for SERCA pump activity and its inhibition.

SERCA pumps = assay: SERCA activity (ATP-induced Ca2+ reuptake) in permeabilized Jurkat T cells; format: cell-based, human
Procedure: as §3, §4

SOCE in Jurkat T cells = assay: Inhibition during activated SOCE (thapsigargin or anti-CD3 OKT3, 1 mM extracellular Ca2+) in Jurkat T cells; format: cell-based, human; details: Homo sapiens, Jurkat, Jurkat T cells stimulated by 1 μM thapsigargin (TG); 1 mM extracellular Ca2+; read-out: IC50 of SOCE inhibition during active SOCE
Procedure: as §1
as §2, with “10^6 Jurkat T-lymphocytes, H1299 cells, TMBP cells or 4*10^6 primary human CD4^+ T cells were added into a 10 × 10 mm quartz glass cuvette (Hellma Analytics, Germany) that was placed into a fluorescence spectrophotometer (F-2710, Hitachi, Japan). In” for “In”, “apart. Fluorescence intensity was measured at an emission wavelength of 495 ± 5 nm for both excitation wavelengths.” for “apart.”
Finally, every measurement was calibrated using 0.1% (v/v) Triton X-100 to obtain a maximal ratio and 4 mM EGTA and 30 mM Tris to obtain a minimal ratio. […]
Besides the Ca^2+ free/Ca^2+ re-addition protocol, we also characterized the effect of STX564 in cells during activated SOCE in the presence of thapsigargin (TG, Fig. 2A,B) or upon stimulation via their TCR/CD3 complex (Fig. 2C). […]. […] Similarly, in Fig. 2C this effect of a partial or full recovery of SOCE was also observed, a few minutes after STX564 addition.

TMBP cells [2] = assay: In vitro activation of TMBP cells by MBP, CD25 surface expression by flow cytometry; format: cell-based, rat
Procedure: (§5) In vitro activation assays were performed in 96-well plates. […]. TMBP cell activation on mRNA level was determined using qPCR and on surface protein level using surface marker staining and subsequent flow cytometry analysis.
To assess in vitro T cell activation, surface staining for CD25 (OX39, Bio-Rad) was performed. APC-labelled goat anti-mouse antibody (Jackson ImmunoResearch) was used as secondary antibody. Mouse IgG1κ (MOPC 31C, Sigma-Aldrich) was used as control.
Cytofluorometric analysis was carried out with a CytoFLEX S (Beckman Coulter) operated by CytExpert software (Beckman Coulter). All procedures were performed at 4 °C. Data were analyzed by using FlowJo software (FlowJo, LLC).

TMBP cells [3] = assay: In vitro activation of TMBP cells by MBP, cytokine mRNA by qPCR; format: cell-based, rat; details: TMBP cells + MBP; 6 h; qPCR
Procedure: Myelin basic protein (MBP)-reactive CD4^+ T cells retrovirally transduced to express enhanced GFP (TMBP cells) were established as previously reported. In brief, 6–8 week old female Lewis rats were immunized subcutaneously with 150 μl of emulsion consisting of equal parts of MBP (stock concentration: 1 mg/ml) and complete Freund's adjuvant containing heat-inactivated Mycobacterium tuberculosis extract (Difco; stock concentration: 2 mg/ml). Draining lymph nodes were harvested and passed through a cell strainer (40 μm) 9–10 days after immunization. The cell suspension was co-cultured with GP + E86 packaging cell lines producing replication-deficient retroviruses in the presence of 10 μg/ml MBP. Murine IL-2 was added to the culture for T cell expansion from day 2–4 after stimulation. The cell lines underwent 3–4 cycles of stimulation before being used for in vitro and in vivo experiments. […] Upon stimulation, they produced interferon-γ and IL-17.
as §5
(§6) Total RNA was isolated using the standard TRIzol method. cDNA was synthesized using the RevertAid First Strand cDNA Synthesis Kit (Thermo Fisher Scientific). Quantitative PCR (qPCR) was performed using the StepOnePlus™ Real-Time PCR System (Applied Biosystems), as previously described [[23], [24], [25]]. Rat TMBP cell data were obtained from three to four independent duplicate measurements. β-actin served as housekeeping gene. Human PBMC data were obtained from two independent healthy donors and duplicate measurements (representative data of one donor are shown). HPRT served as housekeeping gene. For all probes (TaqMan), a combination of 5′-FAM and 3′-TAMRA quencher was used as described.

human PBMCs = assay: In vitro activation of human PBMCs by anti-CD3, interferon-γ mRNA by qPCR; format: cell-based; details: human PBMC; anti-CD3 stimulation
Procedure: In vitro activation assays were performed in 96-well plates. Briefly, 10^5 PBMCs isolated from human peripheral blood by Ficoll gradient were added onto plates coated with anti-human CD3 monoclonal antibody (5 μg ml^−1 in PBS, clone OKT3, Biolegend). 2ME2 or STX564 dissolved in DMSO were added in varying concentrations (0.01, 0.1, 1, 10 μM). […]. PBMC activation on mRNA level was determined using qPCR on samples collected 24 h after CD3 stimulation.
as §6

[4] = Homo sapiens, Jurkat, Jurkat T cells, Ca2+ free/Ca2+ re-addition protocol, plateau 425-475 s after re-addition of 1 mM Ca2+, read-out: IC50 of SOCE inhibition
[5] = Jurkat T cells, Ca2+ free/Ca2+ re-addition protocol
[6] = Homo sapiens, Jurkat, read-out: IC50 of SOCE inhibition, Jurkat T cells, Ca2+ free/Ca2+ re-addition protocol, plateau 425-475 s after re-addition of 1 mM Ca2+
[7] = Jurkat T cells, Ca2+ free/Ca2+ re-addition protocol, plateau 425-475 s after re-addition of 1 mM Ca2+, read-out: IC50 of SOCE inhibition

Question: Which results are given for `CCc1cc2c(cc1OS(N)(=O)=O)CCC1C2CCC2(C)C(OS(N)(=O)=O)CCC12` (centres unmarked) [STX243]?
Answer: IC50 [1, 4]: 5200 nM; concentration giving almost complete inhibition of Ca2+ entry [1, 5]: 25 µM; IC50 fold smaller as compared to STX139 ([1]; Jurkat T cells, SOCE): approx. 2 fold

Question: Which IC50 [1, 4] does the source give for `C[C@]12CC[C@@H]3c4ccc(O)cc4CC[C@H]3[C@@H]1CC[C@@H]2O` [E2, estradiol] here?
Answer: 55000 nM

Question: Which results are given for `COc1cc2c(cc1OS(N)(=O)=O)CCC1C2CCC2(C)C(CC#N)CCC12` (centres unmarked) [STX641]?
Answer: IC50 [1, 4]: 1700 nM; fold more potent than the 17β-hydroxyl-compound (2ME2) ([1]; Jurkat T cells, SOCE): 10 fold

Question: What does the source list for `C/C=C(/C)C(=O)O[C@H]1C(C)=C2[C@H]([C@@H]1OC(=O)CCCCCCC)[C@@](C)(OC(C)=O)C[C@H](OC(=O)CCC)[C@@]1(O)[C@H]2OC(=O)[C@@]1(C)O` [thapsigargin]?
Answer: effect on IP3-evoked Ca2+ release (IP3 receptors): eliminating effects of IP3; effect on SERCA activity (initial slope of [Ca2+] upon ATP addition) (SERCA pumps): almost completely abolished

Question: Which results are given for `COc1cc2c(cc1O)CCC1C2CCC2(C)C(CC#N)CCC12` (centres unmarked) [STX640]?
Answer: IC50 [1, 6]: 2100 nM; fold more potent than the 17β-hydroxyl-compound (2ME2) ([1]; Jurkat T cells, SOCE): 10 fold

Question: What does the source list for `CCc1cc2c(cc1OS(N)(=O)=O)CCC1C2CCC2(C)C(CC(C)=O)CCC12` (centres unmarked) [STX1307]?
Answer: IC50 [1, 4]: 1100 nM; IC50 [1, 7]: ~1000 nM

Question: With `CCc1cc2c(cc1O)CCC1C2CCC2(C)C(O)CCC12` (centres unmarked) [STX139, 2-ethyl-estradiol] as the compound, how does the IC50 [1, 4] read?
Answer: ~12000 nM

Question: And the “concentration giving almost complete inhibition of Ca2+ entry” value [1, 5]?
Answer: 50 µM

Question: How did the IC50 [1, 4] turn out when `CCc1cc2c(cc1O)CCC1C2CCC2(C)C(C[N+](=O)[O-])CCC12` (centres unmarked) [STX1175] was run?
Answer: 1400 nM

Question: With `COc1cc2c(cc1OS(N)(=O)=O)CCC1C2CCC2(C)C(O)CCC12` (centres unmarked) [STX68] as the compound, how does the IC50 ([1]; Homo sapiens, Jurkat, read-out: IC50 of SOCE inhibition) read?
Answer: 25000 nM

Question: What does the source list for `COc1cc2c(cc1O)CC[C@@H]1[C@@H]2CC[C@]2(C)[C@@H](O)CC[C@@H]12` [2ME2, 2-Methoxyestradiol]?
Answer: IC50 (SOCE in Jurkat T cells): 71000 nM; concentration at which up-regulation of CD25 was significantly reduced (TMBP cells [2]): much higher concentration; concentration at which TCR/CD3-evoked pro-inflammatory cytokine expression was significantly reduced (TMBP cells [3]): significantly higher concentrations; IC50 [1, 4]: 20000 nM; fold higher potency compared to estradiol in inhibiting Ca2+ entry ([1]; Jurkat T cells, SOCE): 2.5 fold; fold higher concentration necessary compared to STX564 for antagonist effect on interferon-γ expression (human PBMCs): approx. 10 fold

Question: With `CCc1cc2c(cc1O)CCC1C2CCC2(C)C(CC(C)=O)CCC12` (centres unmarked) [STX1306] as the compound, how does the IC50 [1, 4] read?
Answer: 1600 nM

Question: `CCc1cc2c(cc1OS(N)(=O)=O)CCC1C2CCC2(C)C(C[N+](=O)[O-])CCC12` (centres unmarked) [STX1177] was tested. Which IC50 [1, 4] did it give?
Answer: 1300 nM

Question: What about the IC50 [1, 7] of the same compound?
Answer: ~1000 nM

Question: How did the IC50 [1, 6] turn out when `CCc1cc2c(cc1O)CCC1C2CCC2(C)C(CC#N)CCC12` (centres unmarked) [STX505] was run?
Answer: 1700 nM
